Source: US20090326008A1, “NF-kappa B Inhibitor” (priority 2006, published 2009)

How the values were obtained:
Type in all cases: cell-based, human
[1] = system: NF-κB; experiment: NF-kappaB reporter assay (pNF-kappaB-SEAP) in IL-1β-stimulated MKN-45 cells; conditions: IL-1β 2 ng/mL for 6 hours, DMSO (0.05%) control = 1.00, triplicate
Experimental: pNF-kappaB-SEAP was obtained from Clonetech Laboratories Inc.
Cryopreserved MKN-45 cells (product of JCRB (Japanese Collection of Research Bioresources)) were thawed and cultured in a standard medium in an incubator (37° C., 5% CO2). Every three to five days, the cells were recovered by treatment with Trypsin-EDTA, then adequately diluted and subcultured. MKN-45 cells subcultured two or more times with a survival rate of 95% or more were used in each experiment.
The subcultured MKN-45 cells were harvested using Trypsin-EDTA solution, and the number of viable cells was counted. The cells were suspended in a standard medium to yield a 1.5×10^5 cells/mL suspension. A 24-well plate was seeded with 500 μL/well of the cell suspension, and the cells were cultured in an incubator (37° C., 5% CO2).
The day after seeding, transfection was performed according to the following protocol.
(4.1) Preparation of Plasmid Solution 4 μL of 0.1 μg/μL pNFkappaB-SEAP was placed into each well and diluted with 50 μL of OPTI-MEM I (product of Invitrogen Japan K.K.) by mixing by inversion.
1 μL of Lipofectamine 2000 reagent (product of Invitrogen) was placed into each well and diluted with 50 μL of OPTI-MEM I (product of Life Technologies Inc.) by mixing by inversion. The mixture was allowed to stand at room temperature for 5 to 10 minutes to prepare a Lipofectamine dilution.
The plasmid solution and the Lipofectamine dilution were mixed by inversion and allowed to stand at room temperature for 20 to 30 minutes to prepare a transfection mixture.
The culture medium was removed from the 24-well plate by suction. While care was taken not to dry the subcultured MKN-45 cells, the inner surface of the wells was washed with 1 mL/well of PBS. After the medium was replaced with 500 μL/well of OPTI-MEM I (product of Life Technologies Inc.), 100 μL/well of the transfection mixture was added, and the cells were cultured in a incubator (37° C., 5% CO2). After about 5 hours of incubation, the medium was replaced with a standard medium, and the cells were further cultured in a CO2 incubator (37° C., 5% CO2) until the following day.
On the following morning, the culture medium supernatant was removed by suction and replaced with 1 mL/well of the test compound solution or control solution diluted with a standard medium. The cells were cultured in a CO2 incubator (37° C., 5% CO2) for 1 hour. Each experiment was performed in triplicate.
200 ng/mL IL-1β was added in an amount of 10 μL/well (final concentration: 2 ng/mL), and the cells were cultured in a CO2 incubator (37° C., 5% CO2) for 6 hours.
A reporter assay was performed using Reporter Assay Kit-SEAP (product of Toyobo Co.) according to the manufacturer's protocol.
More specifically, 500 μL of the culture broth was transferred into a tube and centrifuged at 15,000 rpm for 5 minutes at 4° C. The supernatant was transferred into a 96-well white plate. The positive control included in the Reporter Assay Kit-SEAP, and a standard medium as a blank control were each added in an amount of 20 μL/well to the 96-well white plate. Further, an inhibitor for inhibiting the AP activity of the MKN-45 cells was added in an amount of 20 μL/well. After sealing the plate, the contents were mixed well. The plate was placed into a CO2 incubator (37° C., 5% CO2) and allowed to stand for 30 minutes. Subsequently, the plate was allowed to stand on ice for 1 minute, followed by addition of 160 μL/well of Lumi-Phos Plus (a chemiluminescent substrate, product of Lumigen Inc.). The plate was sealed again and placed in a light-shielded state into a CO2 incubator (37° C., 5% CO2). After the plate was allowed to stand for 15 to 30 minutes, luminescence was measured for about 5 to about 10 seconds using a luminometer.
The results of the reporter assay were expressed as Percent Control (or Inhibition), calculated according to the following formulae. The luminescence of each sample was calculated by subtracting the average of blank samples.

[2] = system: COX2; experiment: Relative COX2 mRNA expression in IL-1β-stimulated MKN-45 cells (real-time PCR); conditions: IL-1β-stimulated DMSO-treated cells = 100%, ACTB reference
Experimental: (§1) RNA was extracted from the cells used in Example 2 according to the manufacturer's protocol for ABI Prism 6100 Nucleic Acid PrepStation (a nucleic acid isolation system, product of Applied Biosystems). More specifically, after removal of the culture supernatant and washing with 1 mL of PBS, 250 μL of Nucleic Acid Purification Lysis Solution (Part No. 4305895, Applied Biosystems) was added, and then agitated using a shaker for 2 to 3 minutes. The Lysis Solution containing the cell lysate was collected, and the total amount was transferred to the wells of RNA Purification Tray (Part No. 4305673, Applied Biosystems), which had been pre-wet with 40 μL of Nucleic Acid Purification Wash Solution I (Part No. 4305891, Applied Biosystems) beforehand. Aspiration (20% pressure) was performed for 2 minutes to adsorb the sample onto the RNA Purification Tray, followed by sequentially adding and aspirating (20% pressure, 2 min.) 500 μL of Wash Solution I, Nucleic Acid Purification (Part No. 4305891, Applied Biosystems), 400 μL of Wash Solution II, Nucleic Acid Purification (Part No. 4305890, product of Applied Biosystems), 400 μL of the Wash Solution II, and 300 μL of the Wash Solution II in that order. Aspiration (90% pressure) was performed for 5 minutes to remove the water content from the RNA Purification Trays. After addition of 150 μL of Elution Solution, Nucleic Acid Purification (Part No. 4305893, product of Applied Biosystems), aspiration (20% pressure) was performed for 2 minutes, while collecting the outflow. This was used as collected RNA solution.
(§2) Absorbance of the collected RNA solution at 260 nm was measured using a microplate spectrophotometer (“SpectraMax Plus”, product of Molecular Devices) with an analysis software (“SOFTmaxPRO ver.3.1.2”, product of Molecular Devices), and the RNA concentration was determined from the absorbance. Likewise, absorbance at 280 nm was measured and the purity of the RNA was determined using the analysis software.
(§3) cDNA was synthesized according to the manufacturer's protocol for TaqMan® Reverse Transcription Reagents (Part No. N808-0234, product of Applied Biosystems). More specifically, about 0.5 μg of RNA, 2.5 μL of 10×RT buffer, 5.5 μL of MgCl2 solution, 5 μL of dNTP mixture, 1.25 μL of random hexamer (primers), 0.5 μL of RNase inhibitor, and 0.63 μL of MultiScribe Reverse Transcriptase (product of Applied Biosystems) were added to each collected RNA sample in a tube, and DEPC-treated water was added to make a total volume of 25 μL and stirred. A reaction consisting of 25° C. for 10 minutes, 48° C. for 30 minutes, and 95° C. for 5 minutes was performed using a PCR thermal cycler (“TaKaRa PCR Thermal Cycler Dice”, product of Takara Bio Inc.) to prepare a cDNA solution.
(§4) PCR was performed according to the manufacturer's protocol for TaqMan® Gene Expression Assays (product of Applied Biosystems). More specifically, 5 μL of TaqMan® Fast Universal PCR Master Mix (product of Applied Biosystems), 0.5 μL of TaqMan® Gene Expression Assays for the target gene (gene-specific probe and primer sets, product of Applied Biosystems), and 4.5 μL of the above-obtained cDNA solution were added to each sample and stirred. A PCR reaction consisting of heating at 95° C. for 20 seconds, followed by 40 cycles consisting of heating at 95° C. for 3 seconds and annealing and extension at 60° C. for 30 seconds was performed using a real-time PCR device (“Applied Biosystems 7500 Real-Time PCR System”) with SDS v1.4 Software (product of Applied Biosystems). Threshold cycle (Ct) values were calculated using the software.
(§5) The Assay IDs of the TaqMan® Gene Expression Assays for the target genes used are as follows:
(§6) The expression level of each gene was determined according to the following formula using the level of ACTB as a reference standard.
(§7) (Relative mRNA expression level)=2̂−{(Ct value of the target gene)−(Ct value of ACTB)} […]

[3] = system: TNFα; experiment: Relative TNFα mRNA expression in IL-1β-stimulated MKN-45 cells (real-time PCR); conditions: IL-1β-stimulated DMSO-treated cells = 100%, ACTB reference
Experimental: as §1, §2, §3, §4, §5, §6, §7

[4] = system: IL-8; experiment: Relative IL-8 mRNA expression in IL-1β-stimulated MKN-45 cells (real-time PCR); conditions: IL-1β-stimulated DMSO-treated cells = 100%, ACTB reference
Experimental: as §1, §2, §3, §4, §5, §6, §7

Compound | NF-kappaB reporter (SEAP luminescence) IL-1b(+) mean, relative to control [1] | COX2 relative mRNA expression level, Mean [2] [%] | TNFa relative mRNA expression level, Mean [3] [%] | IL-8 relative mRNA expression level, Mean [4] [%]
O=C1NC(=S)SC1Cc1ccc2c(c1)CCC(=O)N2Cc1ccc(-c2ccccc2)cc1 (stereo not shown) [Test Compound 995] | 0.66 | 28.1 | 29.3 | 38.3
COc1ccc(CC2SC(=O)NC2=O)c2c1N(Cc1ccc(NC(=O)OCc3ccccc3)cc1)C(=O)CC2 (stereo not shown) [Test Compound 234] | 0.67 | 24.0 | 32.4 | 28.3
COc1ccc(CC2SC(=O)NC2=O)c2c1N(CC1CCN(c3ccc(C)cc3)CC1)C(=O)CC2 (stereo not shown) [Test Compound 164] | 0.78 | 21.7 | 30.0 | 24.8
COc1ccc(CC2SC(=O)NC2=O)c2c1N(CCCC(=O)Nc1ccccc1)C(=O)CC2 (stereo not shown) [Test Compound 608] | 0.71 | 42.4 | 30.8 | 36.5
CCNC(=O)CCCN1C(=O)CCc2c(CC3SC(=O)NC3=O)ccc(OC)c21 (stereo not shown) [Test Compound 613] | 0.86 | 112.4 | 94.0 | 91.5
COc1ccc(CC2SC(=O)NC2=O)c2c1N(Cc1ccc(NC(=O)C3CCCCC3)cc1)C(=O)CC2 (stereo not shown) [Test Compound 225] | 0.49 | 32.9 | 44.6 | 50.0
CC(C)(C)OC(=O)N1CCC(CCN2C(=O)CCc3c(CC4SC(=O)NC4=O)cccc32)CC1 (stereo not shown) [Test Compound 159] | 0.64 | 27.7 | 33.5 | 34.0
Cc1ccc(CN2C(=O)CCc3c(CC4SC(=S)NC4=O)cccc32)cc1 (stereo not shown) [Test Compound 993] | 0.59 | 27.6 | 46.8 | 45.6
CCCCCOC(=O)Nc1ccc(CN2C(=O)CCc3c(CC4SC(=O)NC4=O)ccc(OC)c32)cc1 (stereo not shown) [Test Compound 232] | 0.71 | 29.9 | 28.9 | 33.8
COc1ccc(CC2SC(=O)NC2=O)c2c1N(Cc1ccc(NS(C)(=O)=O)cc1)C(=O)CC2 (stereo not shown) [Test Compound 131] | 0.49 | 80.9 | 71.3 | 77.9
COc1ccc(CC2SC(=O)NC2=O)c2c1N(Cc1ccc(C#N)cc1)C(=O)CC2 (stereo not shown) [Test Compound 125] | 0.55 | 29.2 | 52.5 | 45.4
COc1ccc(CC2SC(=O)NC2=O)c2c1N(Cc1ccc(Br)cc1)C(=O)CC2 (stereo not shown) [Test Compound 123] | 0.46 | 28.6 | 28.5 | 48.3
O=C1NC(=O)C(Cc2ccc3c(c2)CCC(=O)N3Cc2ccc(-c3ccccc3)cc2)S1 (stereo not shown) [Test Compound 186] | 0.67 | 29.7 | 70.8 | 67.7
